Laboratory results published in patent US20070087975A1, “Compound useful for the prevention and treatment of left ventricular hypertrophy in dialysed patients” (SIGMA-TAU INDUSTRIE FARMACEUTICHE RIUNITE SPA, priority 2005, published 2007).

How the values were obtained:
[1] = test system: left ventricular (LV) function; details: 58 patients with primary glomerulonephritis and moderate chronic renal failure; cited from earlier work
[2] = test system: decompensated eccentric hypertrophy produced by myocardial infarction; details: rats without renal damages; similar to ACE inhibition; cited from earlier work
[3] = test system: left ventricular hypertrophy (LVH) in ESRD dialysed patients; test: Clinical trial of propionyl L-carnitine in ESRD patients on dialysis (multicentre, randomized, double-blind, placebo-controlled, echocardiography); assay type: in vivo, human; details: 26 weeks
Method: A clinical trial (multicentre, parallel, randomized, double-blind, dose- ranging placebo-controlled study in 300 patients) useful for evaluating both preventive and/or curative effect of the treatment with propionyl L-carnitine (3 and 6 mg/kg given intravenously three times a week at the end of the hemodyalisis session for 26 weeks) has been done.
1) male or female out-patients aged >18 years, suffering from ESRD on bicarbonate dialysis three times a week;
2) patients who have reached a certain degree of dialytic stability (at least since six months on dialysis), so that the variability due to the progressive patient adaptation of the therapeutic treatment is controlled, presenting no clinical signs of hydric overload at the end of dialysis;
3) patients showing a degree of cardiac deterioration defined as inter-ventricular septum and left ventricular wall thickness ≧11 mm;
4) patients with left ventricular ejection fraction >40%;
During the whole Randomised Treatment Period, all drugs considered indispensable for the treatment of the disease under study could be administrated providing that they were administered for at least three months prior to patient's enrollment, and that the dosage of those drugs remained stable throughout the whole treatment period. […]

## C[C@H](CS)C(=O)N1CCC[C@H]1C(=O)O [captopril]
[1]
  LV ejection fraction, early and late transmitral flow velocities and early to late LV inflow velocities ratio: not significantly affected

## CCOC(=O)[C@H](CCc1ccccc1)N[C@@H](C)C(=O)N1CCC[C@H]1C(=O)O [enalapril]
[1]
  LV ejection fraction, early and late transmitral flow velocities and early to late LV inflow velocities ratio: not significantly affected

## CCC(=O)O[C@H](CC(=O)[O-])C[N+](C)(C)C [propionyl L-carnitine]
[2]
  magnitude of decompensated eccentric hypertrophy produced by myocardial infarction: reduces the magnitude of decompensated eccentric hypertrophy
[3]; 3 and 6 mg/kg i.v. three times a week at end of hemodialysis session, preliminary ANOVA analysis
  effect on the signs of LVH, signs (a)-(c): septum and posterior wall thickness, end-systolic and end-diastolic LV size and volume, LV ejection fraction: useful for treating the signs of LVH
[3]; T26 vs T0, 3 and 6 mg/kg i.v. three times a week, control group signs worsened
  progression of the signs of LVH, points (a)-(c), in the treated group respect to its base line: able to reduce the progression of the signs of LVH
